System: acute myeloid leukemia (TN and relapsed/refractory AML)
Assay: Phase 2 study in AML (TN and r/r): landmark response and survival analyses
Format: in vivo, human
Method: In a Phase 2 study of 206 AML patients, both treatment naïve (TN), and relapsed/refractory (r/r), patients were treated with Compound I-1 using different doses and schedules. The patients were randomized either to a 5- or 10-day dosing regimen. The patients who were part of the 10-day regimen were given Compound I-1 at 60 mg/m^2/day for 1-4 cycles, then were given the 5-day regimen. The patients who were part of the 5-day regimen were randomized either to the biologically effective dose group (60 mg/m^2 daily) or the highest well tolerated dose group (90 mg/m^2 daily).
Landmark response (CR, CRi, or CRp based on 2003 IWG criteria, grouped together as composite CR or CRc), and overall survival (OS) analyses for patients alive at or beyond month 3 and month 5 (time of planned start of cycle 4 and cycle 6, respectively) were conducted. […] The results in responding and non-responding patients were also compared to see whether survival benefit was restricted to responding patients only.

Nc1ncn([C@H]2CC(OP(=O)(O)OC[C@H]3O[C@@H](n4cnc5c(=O)[nH]c(N)nc54)CC3O)[C@@H](CO)O2)c(=O)n1 (stereo partly shown) [Compound I-1]
Median OS (landmark, at least 4 cycles): 13.7 m
CRc rate (landmark, at least 4 cycles (97 patients)): 62%
OS HR (landmark, at least 4 cycles vs not): 0.53
Median OS (landmark, at least 6 cycles): 19.9 m
CRc rate (landmark, at least 6 cycles (51 patients)): 82.4%
OS HR (landmark, at least 6 cycles vs not): 0.42
Median OS (landmark, fewer than 4 cycles): 6.1 m
CRc rate (landmark, fewer than 4 cycles (64 patients)): 25%
Median OS (landmark, fewer than 6 cycles): 8.8 m
CRc rate (landmark, fewer than 6 cycles (82 patients)): 35.4%
Median OS (no CRc, at least 4 cycles): 8 m
OS HR (no CRc, at least 4 cycles vs not): 0.63
Median OS (no CRc, at least 6 cycles): 12.9 m
OS HR (no CRc, at least 6 cycles vs not): 0.40
Median OS (no CRc, fewer than 4 cycles): 5.4 m
Median OS (no CRc, fewer than 6 cycles): 8 m
